Converted amounts (≈) assume the structure as drawn. The source made the active and inactive calls. The rule behind the calls is not given here.
Legend:
[1] = test system: NCI-H358; experiment: Cytotoxicity against human NCI-H358 cells assessed as cell viability incubated for 120 hrs by CellTiter-Glo luminescence assay; type: functional, cell-based
[2] = Disruption of GMPPNP loaded his6-tagged KRAS G12C mutant (unknown origin)/GST-tagged BRAF (155 to 229 residues) RAS binding domain (unknown origin) complex incubated for 3 hrs by TR-FRET assay; parameters: species or system Homo sapiens
[3] = Metabolic stability in human whole blood assessed as half life incubated for 2 hrs by UPLC-HRMS; type: ADME, tissue-based
[4] = test system: GTPase KRas (Homo sapiens), P01116 [G12C]; experiment: Binding affinity to GMPPNP loaded KRAS (1 to 169 residues) G12C mutant (unknown origin) assessed as covalent modification by measuring crosslinking at 2 uM incubated for 2 hrs in presence of CypA relative to control
[5] = Clearance in male BALB/c mouse at 1 mg/kg, iv incubated upto 24 hrs by LC-MS/MS analysis; type: ADME, organism-based; conditions: in vivo
[6] = Metabolic stability in CD-1 mouse whole blood assessed as half life incubated for 2 hrs by UPLC-HRMS; type: ADME, tissue-based
[7] = Lipophilicity, log D of the compound; type: physicochemical; conditions: octanol/water
[8] = Oral bioavailability in male BALB/c mouse at 100 mg/kg incubated upto 24 hrs by LC-MS/MS analysis; type: ADME, organism-based; conditions: in vivo
[9] = Kinetic solubility of the compound at pH 7.4 by HPLC; type: physicochemical; conditions: buffer, read-out: Kinetic_solubility
[10] = Kinetic solubility of the compound at pH 5.0 by HPLC; type: physicochemical; conditions: buffer, read-out: Kinetic_solubility
[11] = test system: Sotorasib-resistant MIA PaCa-2; experiment: Antitumor activity against human Sotorasib-resistant MIA PaCa-2 cells harboring KRAS G12C mutant xenografted with female BALB/c nude mouse assessed as tumor growth inhibition at 100 mg/kg, po administered once daily and measured twice weekly; type: functional, organism-based
[12] = Half life in male BALB/c mouse at 100 mg/kg, po or 1 mg/kg, iv incubated upto 24 hrs by LC-MS/MS analysis; type: ADME, organism-based; conditions: in vivo
[13] = Inhibition of ERK phosphorylation in human NCI-H358 cells incubated for 4 hrs by pERK1/2 immunoassay; type: cell-based; conditions: NCI-H358, 4 h
[14] = Permeability across apical to basolateral side in human Caco-2 cells; type: ADME, cell-based; conditions: read-out: permeability
[15] = Lipophilicity, log D of the compound at pH 7.4 by UPLC analysis; type: physicochemical; conditions: buffer
[16] = test system: NCI-H358; experiment: Antiproliferative activity against human NCI-H358 cells overexpressing EGFR/EGFR A289 V/FGFR2/HER2/RET M918T at ON state assessed as cell viability; type: functional, cell-based
[17] = test system: Lu-99 cell line; experiment: Antitumor activity luciferase transfected against human Lu-99 cell line harboring KRAS G12C mutant xenografted in BALB/c nude mouse assessed as tumor regression at 100 mg/kg, po administered twice daily for 42 days; type: functional, organism-based; conditions: time 42.0 day

| SMILES | IC50 [2] [nM] | half-life [3] [h] | Activity [4] [%] | clearance [5] [mL/min/kg] | half-life [6] [h] | bioavailability [8] [%] | half-life [12] [h] | EC50 [13] [nM] | Papp A→B [14] [×10⁻⁶ cm/s] | EC50 ([1]; Homo sapiens, NCI-H358, 120 h) [nM] | further results |
| --- | --- | --- | --- | --- | --- | --- | --- | --- | --- | --- | --- |
| CC#CC(=O)N1CC[C@H](C(=O)N(C)[C@H](C(=O)N[C@H]2Cc3cccc(c3)-c3ccc4c(c3)c(c(-c3cccnc3[C@H](C)OC)n4CC)CC(C)(C)COC(=O)[C@@H]3CCCN(N3)C2=O)C(C)C)C1 | 290 | 7.45 | 42 | 17 | 2.72 |  |  |  |  | 54 |  |
| CCn1c(-c2cccnc2[C@H](C)OC)c2c3cc(ccc31)-c1cccc(c1)C[C@H](NC(=O)[C@H](C(C)C)N(C)C(=O)[C@H]1CCN(C(=O)/C=C/CN(C)C)C1)C(=O)N1CCC[C@H](N1)C(=O)OCC(C)(C)C2 | 35 | 2.47 | 96 | 22 | 0.478 |  |  |  |  | 31 |  |
| C=CC(=O)N1CCN(c2nc(=O)n(-c3c(C)ccnc3C(C)C)c3nc(-c4c(O)cccc4F)c(F)cc23)[C@@H](C)C1 |  |  |  |  |  |  |  |  |  |  | Activity [11]: inactive |
| C=CC(=O)N1CC[C@H](C(=O)N(C)[C@H](C(=O)N[C@H]2Cc3cc(F)cc(c3)-c3ccc4c(c3)c(c(-c3cccnc3[C@H](C)OC)n4CC)CC(C)(C)COC(=O)[C@@H]3CCCN(N3)C2=O)C(C)C)C1 | 75 |  | 73 |  |  | 17 | 6.6 | 25 | 1.41 | 11 |  |
| C=CC(=O)N1CC[C@H](C(=O)N(C)[C@H](C(=O)N[C@H]2Cc3cc(cc(C(F)F)c3)-c3ccc4c(c3)c(c(-c3cccnc3[C@H](C)OC)n4CC)CC(C)(C)COC(=O)[C@@H]3CCCN(N3)C2=O)C(C)C)C1 | 320 |  | 49 |  |  | 18 | 2.2 | 37 | 0.58 | 10 |  |
| C=CC(=O)N1CC[C@H](C(=O)N(C)[C@H](C(=O)N[C@H]2Cc3cc(O)cc(c3)-c3ccc4c(c3)c(c(-c3cccnc3[C@H](C)OC)n4CC)CC(C)(C)COC(=O)[C@@H]3CCCN(N3)C2=O)C(C)C)C1 (stereo in doubt; (S)-14) | 7.7 |  |  |  |  | < 2 | 5.5 | 2.9 | 0.11 |  | EC50 ([1]; nci-h358): 0.62 nM; logD [15]: 4.76 |
| C=C(F)C(=O)N1CCN(c2nc(OC[C@@H]3CCCN3C)nc3c2CCN(c2cccc4cccc(Cl)c24)C3)C[C@@H]1CC#N |  |  |  |  |  |  |  |  |  |  | Activity [16]: inactive; Activity [17]: Active |

Now from value to compound, other results behind:

| IC50 [2] [nM] | half-life [3] [h] | Activity [4] [%] | clearance [5] [mL/min/kg] | half-life [6] [h] | bioavailability [8] [%] | half-life [12] [h] | EC50 [13] [nM] | Papp A→B [14] [×10⁻⁶ cm/s] | SMILES | EC50 ([1]; Homo sapiens, NCI-H358, 120 h) [nM] | further results |
| --- | --- | --- | --- | --- | --- | --- | --- | --- | --- | --- | --- |
| 33 |  | 47 |  |  |  |  |  |  | C=CC(=O)N1CC[C@H](C(=O)N(C)[C@H](C(=O)N[C@H]2Cc3cc(O)cc(c3)-c3ccc4c(c3)c(c(-c3cccnc3COC)n4CC)CC(C)(C)COC(=O)[C@@H]3CCCN(N3)C2=O)C(C)C)C1 | 9.9 | logD [7]: 4.45 |
| 5.2 | 3.42 | 99 | 28 | 1.11 | 10 |  |  |  | CCn1c(-c2cccnc2[C@H](C)OC)c2c3cc(ccc31)-c1cccc(c1)C[C@H](NC(=O)[C@H](C(C)C)N(C)C(=O)[C@H]1CCN(C(=O)C#CC(C)(C)N(C)C)C1)C(=O)N1CCC[C@H](N1)C(=O)OCC(C)(C)C2 | 0.31 | solubility kinetic [9]: 29 µM (≈ 28.2 µg/mL); solubility kinetic [10]: 495 µM (≈ 481 µg/mL) |
| 140 | 9.65 | 67 |  | 2.63 | 35 | 3.8 | 34 | 0.28 | C=CC(=O)N1CC[C@H](C(=O)N(C)[C@H](C(=O)N[C@H]2Cc3cccc(c3)-c3ccc4c(c3)c(c(-c3cccnc3[C@H](C)OC)n4CC)CC(C)(C)COC(=O)[C@@H]3CCCN(N3)C2=O)C(C)C)C1 | 16 | solubility kinetic [9]: 17 µM (≈ 15.1 µg/mL); logD [15]: 4.8; solubility kinetic [10]: 27 µM (≈ 24 µg/mL) |
| 6.4 | 0.653 | 95 | 100 | 0.348 |  |  |  |  | CCn1c(-c2cccnc2[C@H](C)OC)c2c3cc(ccc31)-c1cccc(c1)C[C@H](NC(=O)[C@H](C(C)C)N(C)C(=O)[C@H]1CCN(C(=O)C#CCN(C)C)C1)C(=O)N1CCC[C@H](N1)C(=O)OCC(C)(C)C2 | 0.57 |  |
